Assays:
[1] = biological target: T1, bovine erythrocyte GPx1 (Bos taurus, UniProt P00435); parameters: method as in PMID 32311219; key to GPx1 inhibition: no impact (0); weak impact (+); strong impact (++); settings: cited from earlier work
T1 construct: the isolated enzyme from bovine erythrocytes; purchased Sigma-Aldrich (Taufkirchen, Germany); host or cells: isolated from bovine erythrocytes
T1 sequence (P00435 1-205): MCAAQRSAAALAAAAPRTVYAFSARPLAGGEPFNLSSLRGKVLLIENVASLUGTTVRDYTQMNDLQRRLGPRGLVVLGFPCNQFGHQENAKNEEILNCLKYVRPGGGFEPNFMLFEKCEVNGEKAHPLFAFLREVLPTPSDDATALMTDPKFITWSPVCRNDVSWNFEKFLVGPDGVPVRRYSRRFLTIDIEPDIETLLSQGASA

[2] = tested on: HAP-1, HAP-1.KO.GPx1, Siso and A2780 cells; parameters: method as in PMID 32311219; key: no impact (0); weak impact (+); strong impact (++); settings: summary grade; first generation compound; cited from earlier work
[3] = tested on: seven cancer cell lines; parameters: method as in PMID 32311219; key: no impact (0); weak impact (+); strong impact (++); settings: summary grade; first generation compound; cited from earlier work
[4] = tested on: panel of 14 human cancer cell lines; parameters: method as in PMID 32311219; key: no impact (0); weak impact (+); strong impact (++); settings: summary grade; first generation compound; cited from earlier work
[5] = tested on: HAP-1, HAP-1.KO.GPx1, A2780, and Siso; parameters: method as in PMID 32311219; key: no impact (0); weak impact (+); strong impact (++); settings: summary grade; first generation compound; cited from earlier work
[6] = tested on: panel of 14 human cancer cell lines; parameters: method as in PMID 32311219; key: no impact (0); weak impact (+); strong impact (++); settings: summary grade; first generation compound; cited from earlier work; remark: listed apart in the source
[7] = tested on: GR/CAT; parameters: method as in PMID 32311219; key: no impact (0); weak impact (+); strong impact (++); settings: summary grade; first generation compound; cited from earlier work
[8] = tested on: HAP-1, HAP-1.KO.GPx1, and Siso; parameters: method as in PMID 32311219; key: no impact (0); weak impact (+); strong impact (++); settings: summary grade; first generation compound; cited from earlier work
[9] = tested on: HAP-1, HAP-1.KO.GPx1, A2780 and Siso; parameters: method as in PMID 32311219; key: no impact (0); weak impact (+); strong impact (++); settings: summary grade; first generation compound; cited from earlier work
[10] = tested on: pBR322 plasmid DNA; parameters: method as in PMID 32311219; key: no impact (0); weak impact (+); strong impact (++); settings: summary grade; first generation compound; cited from earlier work
[11] = tested on: PARP1 in HAP-1.KO.GPx1; assay: Western blot of cleaved PARP1; assay type: cell-based, human; settings: pentathiepins IC90, doxorubicin 0.5 µM, 24 h
Description: (§1) In addition to general flow cytometric and microscopic analyses, Western blotting was performed to detect the apoptosis-relevant protein PARP1 (poly(ADP-ribose) polymerase 1) and its cleavage fragment (Figure 17 and Figures S29–S34). Full-length PARP1 (116 kDa) is involved in DNA repair, and a cleavage by caspases (fragment sizes 24 and 89 kDa) caused by caspase-3 and -7 is a hallmark of late apoptosis.
(§2) All detected specific bands were normalized to the total protein load per lane by the TGX stain-free gel system from Bio-Rad.
(§3) All Western blot analyses were performed with reagents, material, and devices purchased from Bio-Rad (Feldkirchen, Germany) if not stated otherwise. To obtain protein lysates, we seeded cells and treated them as described for the other methods. […] Cells were harvested by trypsinization and centrifugation for 5 min at 500× g. After a washing step with PBS, the cell pellet was resuspended in lysis buffer (Tris 50 mM (pH 7.4), 100 mM NaCl, 100 mM NaF, 5 mM EDTA, 0.2 mM Na3VO4, 0.1% Triton-X, and 1% protease inhibitor cocktail added immediately before use). Lysis was supported by incubating the samples for 10 min in an ultrasonic bath before centrifuging for 10 min at 18,000 × g and 4 °C. Protein quantification was performed via the Bradford method using ROTI®nanoquant reagent (Carl Roth GmbH, Karlsruhe, Germany) and bovine serum albumin as calibration standard. For electrophoretic separation, 15–40 µg of protein was loaded per well of a polyacrylamide gel (Mini- or Midi-Protean® TGX stain-free gel, Bio-Rad, Feldkirchen, Germany), and subsequent blotting was performed with Trans-Blot®Turbo™TransferPack Mini or Midi PVDF membranes from Bio-Rad (Feldkirchen, Germany). The membranes were blocked with a 10% non-fat milk powder solution in Tris-buffered saline (TBS; 2.42 g/L Tris, 8.48 g/L NaCl in water) plus 0.5% Tween-20 (TBST) for 1 h at RT. Incubation with primary antibodies took place over night at 4 °C in a 1:1000 dilution in TBST containing BSA (1%). The secondary antibodies conjugated to horse-radish peroxidase were diluted 1:10,000 in TBST and 1% BSA, and incubated for 4 h at RT. A detection step followed, applying Clarity™Western ECL substrate with subsequent imaging via the INTAS Advanced Fluorescence Imager. Between all incubation steps, the blots were washed three times for 10 min with TBST. The bands were quantified with the ImageLab software and normalized using the total protein quantification of the TGX stain-free gel system from Bio-Rad.

[12] = tested on: PARP1 in HAP-1; assay: Western blot of cleaved PARP1; assay type: cell-based, human; settings: pentathiepins IC90, doxorubicin 0.5 µM, 24 h
Description: as §1, §2, §3

[13] = tested on: caspase-3 and -7 in A2780; assay: luminescent caspase activity assay; assay type: cell-based, human; settings: pentathiepins IC90, doxorubicin 0.5 µM, 24 h
Description: (§4) To further corroborate this mode of cell death, we performed a luminescent caspase assay by measuring caspase-3 (cas-3) and caspase-7 (cas-7) activities (Figure 16). Both are executioner caspases that are present as zymogens (35 kDa) and become active after being cleaved (fragment sizes 17 and 19 kDa) by initiator caspases. Activated cas-3 and -7 in turn have several other substrates, including PARP1. In this assay, a precursor with a caspase-specific target sequence was converted into its luminescent form by active caspase-3 or -7, thereby emitting light that can be quantified.
(§5) To study the activation of the effector caspases -3 and -7, we performed a luminescence-based assay according to the manufacturer’s instructions (Caspase-Glo, Promega, Walldorf, Germany). Briefly, 5000 cells were seeded in 0.1 mL per well of a 96-well plate and allowed to adhere overnight. […] Afterwards, the standard protocol was followed, including a 30 min incubation time before measurement of luminescent signals by using the Spectramax i3x (Molecular Devices, Sunnyvale, CA, USA). After subtraction of the background luminescence the positive control and treatment conditions were related to the negative control.

[14] = tested on: caspase-3 and -7 in HAP-1.KO.GPx1; assay: luminescent caspase activity assay; assay type: cell-based, human; settings: pentathiepins IC90, doxorubicin 0.5 µM, 24 h
Description: as §4, §5

[15] = tested on: caspase-3 and -7 in Siso; assay: luminescent caspase activity assay; assay type: cell-based, human; settings: pentathiepins IC90, doxorubicin 0.5 µM, 24 h
Description: as §4, §5

[16] = tested on: caspase-3 and -7 in HAP-1; assay: luminescent caspase activity assay; assay type: cell-based, human; settings: pentathiepins IC90, doxorubicin 0.5 µM, 24 h
Description: as §4, §5

[17] = tested on: HAP-1.KO.GPx1; assay: annexin V-FITC/PI apoptosis assay; assay type: cell-based, human; settings: pentathiepins IC90, doxorubicin 0.5 µM, 24 h
Description: As reported in our earlier publication, a representative pentathiepin was capable of inducing apoptosis in cancer cell lines. Here, we tested compounds 1–6 for their ability to trigger this particular modality of cell death in a subset of four cell lines: HAP-1, HAP-1.KO.GPx1, A2780, and Siso. A flow cytometric assay was performed, allowing us to discriminate between viable, early, and late apoptotic cells (representative dot plots can be found in Figure S47). FITC-labeled annexin V was used to assess the externalization of phosphatidyl serine as a hallmark of early apoptosis induction. The addition of propidium iodide (PI) enabled the detection of late apoptotic cells as it only permeates porous cell membranes and exerts fluorescence once bound to double-stranded DNA.
The annexin V-FITC/PI assay, which discriminates between viable, early, and late apoptotic cells within a sample population, was performed according to the manufacturer’s instructions (Miltenyi Biotec, Teterow, Germany). Briefly, 125,000 cells were seeded in 2 mL per well of a 6-well plate, allowed to adhere overnight, and subsequently treated with the respective pentathiepin (IC90, see Table S4) diluted in 3 mL of medium. After incubation periods of 6, 24, or 48 h, the cells were harvested, washed with the provided binding buffer, and stained with the annexin V-FITC reagent for 20 min at room temperature (RT) in the dark. After another washing step, the pellet was resuspended, and PI was added immediately before flow cytometric measurement at λEx/Em = 488/525 ± 50 nm for FITC and λEx/Em = 488/655–730 nm for PI with the MACSquant Analyzer 10 (Miltenyi Biotec, Teterow, Germany).

[18] = tested on: HAP-1.KO.GPx1; assay: alkaline Comet assay; assay type: cell-based, human; settings: 25 µM pentathiepin or 20 µM H2O2, 15 min, 0 °C
Description: (§6) Next, the potential of the pentathiepins 1–6 to damage nuclear DNA was investigated in the cell lines HAP-1, HAP-1.KO.GPx1, and Siso, with different expression levels of GPx1 and CAT (see Figure 7), by Comet Assay (Figure 12) with representative images in the Supplementary Materials (Figure S48).
(§7) With this assay, the intensity of DNA damage can be assessed on the level of a single cell, in case of the alkaline version detecting both single and double strand breaks as well as alkali-labile sites. The method presented here is an adaptation of the protocol published by Olive and Banath and based on the distinct electrophoretic mobility of damaged and intact genomic DNA. The latter has a low mobility; does thus not migrate in the electric field; and remains in a nucleoid shape after lysis, referred to as the comet head. In contrast, when strand breaks are created, free charged ends emerge and increase the electrophoretic mobility, prompting DNA segments to drift away from the comet head, thereby forming the so-called comet tail. As descriptor of still intact genomic DNA, the percentage of DNA in the comet head was selected. Per condition, 50,000 cells of either Siso, HAP-1, or HAP-1.KO.GPx1 were diluted in 1 mL of PBS and subsequently treated with either a 1% DMF aqueous solution as negative control, 20 µM of H2O2 as positive control, or 25 µM of pentathiepin for 15 min on ice to impair intracellular DNA repair mechanisms. Afterwards, 400 µL of the cell suspension was blended with 1.2 mL of a 1% low melting point agarose solution (40 °C) and smoothly distributed on agarose-precoated glass slides. Polymerization was finished after 3 min at RT, and the slides were horizontally submerged in alkaline lysis buffer (1.2 M NaCl, 0.1% N-lauryl-sarcosinate, 0.1 M Na-EDTA, 0.26 M NaOH) before storing them at 4 °C overnight. The slides were then rinsed three times in rinse/electrophoresis buffer (0.002 M Na-EDTA, 0.03 M NaOH) before electrophoretic separation was performed for 25 min at 0.6 V/cm. A neutralization step by adding distilled water was followed by staining the slides with 250 µL of an aqueous 10 µg/mL PI solution for 20 min. For visualization and image capturing, a DMi8 fluorescent microscope and LASX software (Leica Microsystems, Wetzlar, Germany) were used, and the comets scored with the help of CometScore2.0 (rexhoover.com). Per condition and replicate, at least 100 comets were analyzed to calculate a mean level of damage.

[19] = tested on: Siso; assay: alkaline Comet assay; assay type: cell-based, human; settings: 25 µM pentathiepin or 20 µM H2O2, 15 min, 0 °C
Description: as §6, §7

[20] = tested on: HAP-1; assay: alkaline Comet assay; assay type: cell-based, human; settings: 25 µM pentathiepin or 20 µM H2O2, 15 min, 0 °C
Description: as §6, §7

O=C(O)CC(S)C(=O)O (stereo not drawn) [mercaptosuccinic acid]
IC50 ([1]; GPx1 inhibition): 5.9 µM

CCOc1c2c(c3cnc4cc(C)c(C)cc4n13)SSSSS2 [(c)]
Morphological changes [2]: + | ROS induction [3]: + | Cytotoxicity [4]: + | Apoptosis [5]: + | Antiproliferative effect [6]: + | GR/CAT inhibition [7]: 0 | GPx1 inhibition ([1]; summary grade, first generation compound): + | Comet formation [8]: + | Ferroptosis [9]: 0 | DNA cleavage [10]: +

COc1cccc2c1C(=O)c1c(O)c3c(c(O)c1C2=O)C[C@@](O)(C(=O)CO)C[C@@H]3O[C@H]1C[C@H](N)[C@H](O)[C@H](C)O1 [doxorubicin, reference compound]
cleaved PARP1 [11]: detected to statistically significant extents | cleaved PARP1 [12]: detected to statistically significant extents | caspase-3 and -7 activity vs solvent control [13]: activation of the caspase-3 and -7 was confirmed | caspase-3 and -7 activity vs solvent control [14]: activation of the caspase-3 and -7 was confirmed | caspase-3 and -7 activity vs solvent control [15]: activation of the caspase-3 and -7 was confirmed | caspase-3 and -7 activity vs solvent control [16]: activation of the caspase-3 and -7 was confirmed | early apoptotic cells [17]: about 50%

OO [Compound H2O2, hydrogen peroxide]
intact genomic DNA (Comet head) [18]: 5% | intact genomic DNA (Comet head) [19]: about 10% | intact genomic DNA (Comet head) [20]: 63%

— paper PMC8305076, “Comprehensive Evaluation of Biological Effects of Pentathiepins on Various Human Cancer Cell Lines and Insights into Their Mode of Action” (International Journal of Molecular Sciences, 2021)
